Where “and” joins values, the source holds several entries; their conditions need not be identical. Equal values may be shown once.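 Values below derive from 48-hour exposures of cells grown in 96-well plates, with endpoints linearly interpolated between the two concentrations bracketing the appropriate inhibition level. The concentration for 50% growth inhibition is given as GI50. TGI marks complete inhibition of growth.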 Calls of active or inactive are those of the source. Cut-off read from the data, not from the text of the source: active = GI50 below about 0.43 µM; inactive = the rest.
What was measured:
Assay in all cases: DTP human tumour cell line panel, 48 h
SR leukemia = tested on: SR leukemia
M14 melanoma = tested on: M14 melanoma
SK-OV-3 ovarian = tested on: SK-OV-3 ovarian
M19-MEL melanoma = tested on: M19-MEL melanoma
NCI-H226 lung = tested on: NCI-H226 lung
KM20L2 colon = tested on: KM20L2 colon
SW-620 colon = tested on: SW-620 colon
SK-MEL-28 melanoma = tested on: SK-MEL-28 melanoma
MDA-MB-231 breast = tested on: MDA-MB-231 breast

SMILES	TGI (SR leukemia)	TGI (M14 melanoma)	TGI (SK-OV-3 ovarian)	TGI (M19-MEL melanoma)	TGI (NCI-H226 lung)	TGI (KM20L2 colon) [µM]	TGI (SW-620 colon)	TGI (SK-MEL-28 melanoma)	TGI (MDA-MB-231 breast)	GI50 (M19-MEL melanoma)	GI50 (SW-620 colon)	GI50 (SK-MEL-28 melanoma)	GI50 (SR leukemia) [µM]	GI50 (M14 melanoma)	GI50 (SK-OV-3 ovarian)	GI50 (MDA-MB-231 breast) [µM]	GI50 (NCI-H226 lung)	outcome (KM20L2 colon)	GI50 (KM20L2 colon) [µM]
Nc1nc(N)c(CCCCc2ccccc2)c(/C=C/c2ccc([N+](=O)[O-])cc2)n1	4.85 µM	9.24 µM	39.1 µM	30.3 µM	55.6 µM	20.6	5.91 µM	12.8 µM											
C[C@H]1[C@H](C)CC[C@]2(C(=O)O)CCC3(COC(=O)/C=C/c4ccc(O)cc4)C(=CCC4[C@@]5(C)CC[C@H](O)C(C)(C)C5CC[C@]43C)[C@H]12 (some centres undefined)	64.3 µM	24.9 µM	6.99 µM	> 100 µM	23.4 µM	16.4	18 µM	22.9 µM											
CCCCCCCCCCCCCC(=O)NO	> 100 µM	36.2 µM	73.5 µM	56.3 µM	19 µM	26	82.6 µM	75.8 µM	> 100 µM										
COc1ccccc1/C=C1\CCC(CN2CCOCC2)C1=O (centres undefined)	5.7 µM	18.8 µM	> 57.5 µM	18 µM	31.8 µM	32.6	11.5 µM	29.6 µM	11.5 µM										
c1ccc(N2CCN(CCCN3CCc4c([nH]c5ccccc45)C3c3cccnc3)CC2)cc1 (centres undefined)	> 71.1 µM	59.8 µM	> 100 µM	> 100 µM	> 100 µM	> 100	> 100 µM	> 100 µM											
O=C(CC1(O)C(=O)Nc2c(Cl)cc(Cl)cc21)c1ccc([N+](=O)[O-])cc1 (centres undefined)	> 80.6 µM	> 55.7 µM	> 100 µM	22 µM	> 73.3 µM	> 100	> 63 µM	> 59.6 µM											
O=c1oc2c(O)c(O)cc3c(=O)oc4c(O)c(O)cc1c4c23	> 100 µM	> 100 µM	> 100 µM	> 100 µM	57.4 µM	> 100	> 100 µM	> 100 µM		> 100 µM	> 100 µM	> 100 µM							
C=C1CCCC2OC(OC)CCC12 (centres undefined)	> 100 µM	> 100 µM	> 100 µM	> 100 µM	> 100 µM	> 100	> 100 µM												
C=C1C(=O)O[C@H]2C3OC3(C)CC/C=C(/C(=O)OC)[C@@H](OC(C)=O)[C@H](OC(=O)C3(C)OC3C)[C@H]12 (some centres undefined)	0.664 µM and 1.27 µM	3.13 µM and 2.4 µM and 1.29 µg/mL	18.9 µM and 48 µg/mL	5.17 µg/mL	3.25 µM and 31 µg/mL		3.47 µM and 1.4 µM and 0.762 µg/mL	3.55 µM and 9.53 µM and 0.779 µg/mL	5.9 µM and 4.71 µM	1.94 µg/mL	422 nM and 350 nM and 0.302 µg/mL	1.06 µM and 1.74 µM and 0.336 µg/mL	0.248	1.5 µM and 850 nM and 0.499 µg/mL	9.25 µM and 26.5 µg/mL	1.23	1.6 µM and 8.12 µg/mL	inactive	
CC[C@@]1(O)C(=O)OCc2c1cc1n(c2=O)Cc2cc3cccc(N)c3nc2-1		> 100 µM	29.7 µM	> 100 µM	27.9 µM	> 100		> 100 µM		13.1 µM		> 100 µM	0.478	9.27 µM	5.13 µM		2.57 µM		26.2
COc1ccc(C(=O)Nc2ccn(CCOC(=O)c3ccc(OC)cc3)c(=O)n2)cc1	> 100 µM	> 100 µM	> 100 µM	> 100 µM	> 100 µM	> 100	> 100 µM	> 100 µM											
CC(=O)OC(C)(C)C[N+](=O)[O-]	> 100 µM	> 100 µM	> 100 µM	> 100 µM	> 100 µM	> 100	> 100 µM	> 100 µM											
CN(CO)c1nc(N(C)CO)nc(N(C)CO)n1	> 77.1 µM and 1080 µM	36.4 µM and 42.8 µM	> 82.1 µM and 54.2 µM	17.2 µM	> 70.3 µM and 21.4 µM	25.2	43.6 µM and 70.6 µM	36.7 µM and 28.4 µM	42.9 µM and 46.9 µM		11.5 µM	18.3 µM	28.4	19.5 µM	59.1 µM	18.3	24.8 µM and 9.99 µM		
O=[N+]([O-])c1cc(C(F)(F)F)cc2n[se]nc12	4.39 µM	3.22 µM	27.5 µM	10.6 µM	46.8 µM	16.4	3.11 µM	4.39 µM	5.84 µM										

— PubChem BioAssay (NCI)
